# Results reported in patent US9574188B2, “DNA restriction library tagging and analysis” (Harborgen Biotech LLC, priority 2014, dated 2017).
# Tested on: RKO cell line
# Assay: Effect of methylation inhibitor on global methylation percentage (restriction library qPCR)
# Assay type: cell-based
# Protocol: The following steps are performed to create (including amplify) the restriction library, and measure methylation level: • 1. Add equal amount of a genomic DNA into two tubes containing the Msp I restriction library making system or Hpa II restriction library making system. • 2. Incubate the two tubes in PCR instrument. Repeat the following thermal cycle 100 times: 22 degree Celsius for 2 minutes, 16 degree 2 minutes, and 4 degree 2 minutes.
# • Hpa II, Msp I and Cla I have more than 75% activity left at 22 degree. The generated restriction fragments and adaptors have the compatible CG-5′ overhang that contain phosphate at 5′ ends. At 4 degree Celsius, the compatible overhangs anneal together then T4 DNA ligases join the two annealed ends. • 3. […] Consequently the hetero-ligation is no longer recognizable by Cla I, Msp I or Hpa II. • 4. […] The proportion of hetero-ligation products becomes higher and higher, while the proportion of self-ligation products becomes lower and lower accompanied with repeating the cycle digestion-ligation reaction. • 6. All restriction sites in the Msp I restriction library making system disappear after hetero-ligation between restriction fragments and the adapters at reaction end, but not the methylated restriction sites (CCGG) in Hpa II restriction library making system. • 7. […]
smiles,measurement,setting,value
"Nc1ncn([C@H]2C[C@H](O)[C@@H](CO)O2)c(=O)n1 [DAC, 5-aza-2′ deoxycytidine]",methylation percentage of RKO cells after methylation inhibitor treatment,"5 μM for 3 days prior to harvest, decreased from 96.7% (before treatment)",35.6%
same,effect on the methylation level of RKO cell line,FIG. 9 legend,significantly affected
